How the values were obtained:
[1] = tested on: Xanthomonas campestris pv. campestris; test: In vivo preventive test on Xanthomonas campestris pv. campestris (black rot on cabbage); details: 31 ppm, cabbage plants sprayed 72 hours before inoculation; evaluated 8 or 10 days after inoculation
Description: The tested active ingredients were prepared by homogenization in a mixture of acetone/Dimethyl sulfoxide/Tween®, and then diluted with water to obtain the desired active material concentration.
The young plants of cabbage were treated by spraying the active ingredient prepared as described above.
Control plants were treated only with an aqueous solution of acetone/Dimethyl sulfoxide/Tween®.
After 72 hours, the plants were contaminated by spraying the leaves with an aqueous bacteria suspension of Xanthomonas campestris pv. campestris. The contaminated cabbage plants were incubated for 8 or 10 days at 27° C. at 95% relative humidity.
The test was evaluated 8 or 10 days after the inoculation. 0% means an efficacy which corresponds to that of the control plants while an efficacy of 100% means that no disease was observed.

[2] = tested on: salicylate responsive promoter sequence of the PR1 (pathogenesis-related protein I) gene (AT2G14610); test: Induction of defense gene expression in Arabidopsis thaliana (PR1 promoter-GFP reporter plants); assay type: in vivo; details: 300 ppm, sprayed; 3rd day after spraying; mock treated leaves set as 1.00
Description: Arabidopsis thaliana reporter plants containing the coding sequence of a green fluorescent protein (GFP) linked to the salicylate responsive promoter sequence of the PR1 (pathogenesis-related protein I) gene (AT2G14610) were grown for five days and then sprayed with compounds. On the 3rd day after spraying, plant fluorescence was assessed with a MacroFluo instrument from Leica Microsystems (Wetzlar, Germany). Fluorescences were quantified with the Meta-Morph Microscopy Automation & Image Analysis Software (Molecular Devices, Sunnyvale, Calif., United States).
Background fluorescence in mock treated leaves was set as 1.00.

[3] = Log P by HPLC on reversed phase columns (EEC directive 79/831 Annex V.A8); assay type: physicochemical; details: reversed phase HPLC columns
Description: In the above tables, measurement of Log P values was performed according to EEC directive 79/831 Annex V.A8 by HPLC (High Performance Liquid Chromatography) on reversed phase columns with the following methods: [^a] […] If more than one Log P value is available within the same method, all the values are given and separated by “+”. Calibration was done with straight-chain alkan2-ones (with 3 to 16 carbon atoms) with known Log P values (measurement of Log P values using retention times with linear interpolation between successive alkanones). Lambda-max-values were determined using UV-spectra from 200 nm to 400 nm and the peak values of the chromatographic signals.

[4] = tested on: Pseudomonas syringae pv. tomato; test: Pseudomonas syringae pv. tomato in vitro cell test; assay type: cell-based; details: 20 ppm of active ingredient, liquid culture, 24 h incubation, read-out: efficacy (inhibition of bacteria growth)
Description: (§1) • Solvent: DMSO • Culture medium: LB broth medium (Luria Broth Miller) Sigma • Inoculum: bacteria suspension Compounds to be tested were solubilized in DMSO and the solution used to prepare the required range of concentrations. The final concentration of DMSO used in the assay was ≤1%. Inoculum was prepared from a pre-culture of bacteria grown in liquid medium and diluted to the desired optical density (OD). Compounds were evaluated for their ability to inhibit bacteria growth in liquid culture assay. The compounds were added in the desired concentrations to culture medium containing the bacteria suspension. After 24 h of incubation, the efficacy of compounds was determined by spectrometric measurement of bacteria growth. Inhibition was determined by comparing the absorbance values in wells containing the compounds with the absorbance in control wells without compounds.

[5] = tested on: Xanthomonas campestris pv. campestris; test: Xanthomonas campestris pv. campestris in vitro cell test; assay type: cell-based; details: 20 ppm of active ingredient, liquid culture, 24 h incubation, read-out: efficacy (inhibition of bacteria growth)
Description: as §1, with “Compounds” for “Compounds to be tested”, “10%.” for “≤1%.”, “active ingredients.” for “compounds.”

Botrytis cinerea = Botrytis cinerea in vitro cell test; assay type: cell-based; details: 120 h, 20 ppm of active ingredient, liquid culture, 5 days incubation, read-out: efficacy (inhibition of fungal growth)
Description: • Solvent: DMSO • Culture medium: 14.6 g anhydrous D-glucose (VWR), 7.1 g Mycological Peptone (Oxoid), 1.4 g granulated Yeast Extract (Merck), QSP Iliter • Inoculum: spore suspension
Fungicides were solubilized in DMSO and the solution used to prepare the required range of concentrations. The final concentration of DMSO used in the assay was ≤[…]1%.
A spore suspension of B. cinerea was prepared and diluted to the desired spore density.
Fungicides were evaluated for their ability to inhibit spore germination and mycelium growth in liquid culture assay. The compounds were added in the desired concentration to the culture medium with spores. After 5 days incubation, fungi-toxicity of compounds was determined by spectrometric measurement of mycelium growth. Inhibition of fungal growth was determined by comparing the absorbance values in wells containing the fungicides with the absorbance in control wells without fungicides.

[6] = method [a]: LC-UV, acidic range, 0.1% formic acid in water and acetonitrile as eluent
[7] = value in the preparation example, method letter not given

| Compound | efficacy [1] | relative fluorescence value [2] | chromatographic logP [3, 6] | chromatographic logP [3, 7] | inhibition at 20 ppm [4] [%] | inhibition at 20 ppm [5] [%] | inhibition at 20 ppm (Botrytis cinerea) [%] |
| --- | --- | --- | --- | --- | --- | --- | --- |
| O=C(NC1(C(=O)O)CC1)c1sc(Br)c(Br)c1Br [I.14] | at least 80% | – | – | – | – | – | – |
| O=C(O)c1ccccc1O [Salicylic acid] | – | 2.70 | – | – | – | – | – |
| O=C(NC1(C(=O)O)CC1)c1cc(Br)c(Br)s1 [CMP1] | 10% | – | – | – | – | – | – |
| CCOC(=O)C1(NC(=O)c2sc(Br)c(Br)c2F)CC1 [I.01, ethyl 1-{[(4,5-dibromo-3-fluoro-2-thienyl)carbonyl]amino}cyclopropanecarboxylate] | – | – | 3.13 | 3.13 | ≤ 30 | ≤ 30 | ≤ 30 |
| O=C(NC1(C(=O)O)CC1)c1sc(Cl)c(Cl)c1Br [I.15, 1-{[(3-bromo-4,5-dichloro-2-thienyl)carbonyl]amino}cyclopropanecarboxylic Acid] | – | – | 2.37 | 2.39 | ≤ 30 | ≤ 30 | ≤ 30 |
| CCOC(=O)C1(NC(=O)c2sc(Cl)c(Cl)c2Br)CC1 [I.03, Ethyl 1-{[(3-bromo-4,5-dichloro-2-thienyl)carbonyl]amino}cyclopropanecarboxylate] | – | – | – | – | ≤ 30 | ≤ 30 | ≤ 30 |
